Like-named read-outs stand apart in the source and are kept apart here.
How the values were obtained:
E. coli GroEL/ES = biological target: T1, E. coli GroEL/ES (Escherichia coli, UniProt P0A6F5); test: GroEL/ES-mediated dRho refolding assay; format: biochemical
T1 construct: made in house; host or cells: GroEL in E. coli DH5α; GroES in E. coli BL21 (DE3)
Procedure: Reagent preparation: For this assay, five primary reagent stocks were prepared: 1) GroEUES-dRho binary complex stock; 2) ATP initiation stock; 3) thiocyanate enzymatic assay stock; 4) formaldehyde quench stock; 5) ferric nitrate reporter stock. Denatured rhodanese (dRho) was prepared by 3-fold dilution of rhodanese (Roche product #R1756, diluted to 10 mg/mL with H2O) with denaturant buffer (12 M Urea, 50 mM Tris-HCl, pH 7.4, and 10 mM DTT). Rhodanese was completely denatured by incubating at room temperature for 45 min. The binary complex solution was prepared by slowly adding the dRho stock to a stirring stock of concentrated GroEL in modified folding buffer (50 mM Tris-HCl, pH 7.4, 50 mM KCl, 10 mM MgCl2, 5 mM Na2S2O3, and 1 mM DTT). The solution was centrifuged at 16,000×g for 5 minutes, and the supernatant was collected and added to a solution of GroES in modified folding buffer to give final protein concentrations of 100 nM GroEL, 120 nM GroES, and 80 nM dRho. The binary complex stock was prepared immediately prior to use. For the ATP initiation stock, ATP solid was diluted into modified folding buffer to a final concentration of 2.0 mM. The thiocyanate enzymatic assay stock was prepared to contain 70 mM KH2PO4, 80 mM KCN, and 80 mM Na2S2O3 in water. The formaldehyde quench solution contained 30% formaldehyde in water. The ferric nitrate reporter stock contained 8.5% w/v Fe(NO3)3 and 11.3% v/v HNO3 in water.
Assay Protocol: First, 10 μL aliquots of the GroEL/ES-dRho complex stock were dispensed into clear, 384-well polystyrene plates. […] The chaperonin-mediated refolding cycle was initiated by addition of 10 μL of ATP stock (reagent concentrations during refolding cycle: 50 nM GroEL, 60 nM GroES, 40 nM dRho, 1 mM ATP, and compounds of 250 μM to 114 nM, 3-fold dilution series). After incubating for 45 minutes at 37° C. for the refolding cycle, 30 μL of the thiocyanate enzymatic assay stock was added and incubated for 60 min at R.T. for the refolded rhodenase enzymatic reporter reaction. The reporter reaction was quenched by adding 10 μL of the formaldehyde quench stock, and then 40 μL of the ferric nitrate reporter stock was added to quantify the amount of thiocyanate produced during the enzymatic reporter reaction, which is proportional to the amount of dRho refolded by GroEL/ES. After incubating at R.T. for 15 min, the absorbance by Fe(SCN)3 was measured at 460 nm using a Molecular Devices SpectraMax Plus384 microplate reader. A second set of baseline control plates were prepared analogously, but without GroEL/ES-dRho protein binary solution, to correct for possible interference from compound absorbance or turbidity. […] Results presented represent the averages of IC50 values obtained from at least quadriplicate (duplicate of duplicate) replicates.
After generating the compound library, we next employed a series of well-established biochemical assays to evaluate compound inhibitory effects against the GroEUES chaperonin system (See FIG. 6 and FIG. 7). We used E. coli GroEUES as the surrogate chaperonin system for refolding of the reporter enzymes malate dehydrogenase (MDH) and rhodanese (Rho). Briefly, binary complexes are formed between GroEL and denatured MDH or Rho, which are then refolded to their native states upon addition of ATP and the GroES co-chaperonin. Enzymatic activities of refolded native MDH or Rho act as coupled reporters of GroEUES refolding functions since in the presence of chaperonin inhibitors, no functional reporter enzymes are generated.

native Rho (rhodanese) = biological target: T2, native Rho (rhodanese) (Bos taurus, UniProt P00586); test: Counter-screen for inhibition of native rhodanese enzymatic activity; format: biochemical; settings: for log(IC50) Native Rho Reporter: log of IC50 (μM scale), with standard deviation; for IC50: read-out: Biochemical Assay IC50 Native Rho Reporter; for inhibition of native Rho enzymatic activity (in words): false-positive counter-screen
T2 construct: purchased Roche (so in the source) R1756
T2 sequence (P00586 1-297): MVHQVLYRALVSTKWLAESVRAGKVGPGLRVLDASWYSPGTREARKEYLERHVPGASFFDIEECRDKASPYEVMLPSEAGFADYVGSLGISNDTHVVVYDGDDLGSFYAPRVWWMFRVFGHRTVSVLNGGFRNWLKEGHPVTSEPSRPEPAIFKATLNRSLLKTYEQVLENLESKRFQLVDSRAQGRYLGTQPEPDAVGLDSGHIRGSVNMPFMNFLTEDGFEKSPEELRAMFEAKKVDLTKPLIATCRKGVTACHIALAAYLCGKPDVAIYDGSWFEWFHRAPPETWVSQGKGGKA
Procedure: Reagent Preparations & Assay Protocol: Reagents were identical to those used in the GroEUES-dRho refolding assay described above; however, the assay protocol differed in the sequence of compound addition to the wells. Compounds were pin-transferred after the 60 minute incubation for the refolding cycle, but prior to the addition of the thiocyanate enzymatic assay stock. Thus, the refolding reactions were allowed to proceed for 60 min at 37° C. in the absence of test compounds, but the enzymatic activity of the refolded rhodanese reporter enzyme was monitored in the presence of test compounds (inhibitor concentration range during the enzymatic reporter reaction is 100 µM to 46 nM-3-fold dilutions). IC50 values for the rhodenase reporter enzyme were determined as described above. Results presented represent the averages of IC50 values obtained from at least quadriplicate (duplicate of duplicate) replicates.

[1] = Liver cell viability assay (Alamar Blue); settings: human
Procedure: HEK 293 cells were maintained in MEM medium (Corning Cellgro, 10-009 CV) supplemented with 10% FBS (Sigma, F2242). […] Cells at 80% confluence were harvested and diluted in growth medium, then 45 μL of the THLE-3 cells (1,500 cells/well) or HEK 293 cells (1,500 cells/well) were dispensed per well, and plates were sealed with “Breathe Easy” oxygen permeable membranes (Diversified Biotech) and incubated at 37° C., 5% CO2, for 24 h.

[2] = log of IC50 (μM scale), with standard deviation
[3] = read-out: Biochemical Assay IC50 GroEL/ES-dRho Refolding
[4] = log of IC50 (μM scale), with standard deviation, read-out: log(IC50) GroEL/ES-dRho Refolding (converted)

T1 sequence (P0A6F5 2-548): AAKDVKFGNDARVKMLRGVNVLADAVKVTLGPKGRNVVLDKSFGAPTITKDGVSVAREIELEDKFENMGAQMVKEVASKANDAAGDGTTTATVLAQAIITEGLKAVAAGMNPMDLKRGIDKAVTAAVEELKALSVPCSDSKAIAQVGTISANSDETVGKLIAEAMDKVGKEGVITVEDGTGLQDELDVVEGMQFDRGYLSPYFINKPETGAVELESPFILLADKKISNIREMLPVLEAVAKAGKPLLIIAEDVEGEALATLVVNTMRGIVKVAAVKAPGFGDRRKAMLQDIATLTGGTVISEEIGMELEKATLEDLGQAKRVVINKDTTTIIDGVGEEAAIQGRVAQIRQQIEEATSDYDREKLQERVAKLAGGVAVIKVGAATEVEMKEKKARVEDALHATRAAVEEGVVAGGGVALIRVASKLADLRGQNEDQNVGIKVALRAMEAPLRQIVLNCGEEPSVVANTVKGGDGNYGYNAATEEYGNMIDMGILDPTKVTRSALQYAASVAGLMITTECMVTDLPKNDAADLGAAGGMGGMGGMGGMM

| SMILES | log(IC50) GroEL/ES-dRho Refolding (E. coli GroEL/ES; [2]) | IC50 (E. coli GroEL/ES; [3]) [µM] | log(IC50) Native Rho Reporter (native Rho (rhodanese)) | IC50 (native Rho (rhodanese)) [µM] | CC50 at 48 h ([1]; THLE-3 liver cells) [µM] | IC50 (E. coli GroEL/ES) [µM] | CC50 at 48 h [1] [µM] | IC50 (E. coli GroEL/ES; [4]) [µM] | inhibition of native Rho enzymatic activity (in words) (native Rho (rhodanese)) |
| --- | --- | --- | --- | --- | --- | --- | --- | --- | --- |
| CC1(C)S[C@@H]2[C@H](NC(=O)[C@H](N)c3ccccc3)C(=O)N2[C@H]1C(=O)O [Ampicillin, ampicillin, reference compound] | >2 | > 100 | >2 | > 100 | > 100 | – | – | – | – |
| Cc1cc(C(C#N)c2ccc(Cl)cc2)c(Cl)cc1NC(=O)c1cc(I)cc(I)c1O (centres unmarked) [Closantel, closantel, reference compound] | – | 1.5 | >2 | > 100 | – | 1.55 | 52.5 | – | – |
| O=C(Nc1ccc(Sc2nc3ccccc3s2)c(Cl)c1)c1cc(Br)cc(Br)c1O [Compound 1, N-(4-(Benzo[d]thiazol-2-ylthio)-3-chlorophenyl)-3,5-dibromo-2-hydroxybenzamide] | – | 1.5 | – | > 100 | – | – | – | 1.55 | – |
| O=C(Nc1ccc(Sc2nc3ccccc3s2)c(Cl)c1)c1cccc(Br)c1O [Compound 2, N-(4-(Benzo[d]thiazol-2-ylthio)-3-chlorophenyl)-3-bromo-2-hydroxybenzamide] | 0.58 ± 0.15 | 3.8 | – | – | – | – | – | – | inactive against the reporter enzymes |
| O=C(Nc1ccc(Sc2nc3ccccc3s2)c(Cl)c1)c1cc(Br)ccc1O [Compound 3, N-(4-(Benzo[d]thiazol-2-ylthio)-3-chlorophenyl)-5-bromo-2-hydroxybenzamide] | 1.04 ± 0.38 | 11 | – | > 100 | – | – | – | – | inactive against the reporter enzymes |
| O=C(Nc1ccc(Sc2nc3ccccc3s2)c(Cl)c1)c1ccccc1O [Compound 4, N-(4-(Benzo[d]thiazol-2-ylthio)-3-chlorophenyl)-2-hydroxybenzamide] | 1.80 ± 0.27 | 63 | – | > 100 | – | – | – | – | – |
| O=C(Nc1ccc(Sc2nc3ccccc3s2)cc1)c1cc(Br)cc(Br)c1O [Compound 5, N-(4-(Benzo[d]thiazol-2-ylthio)phenyl)-3,5-dibromo-2-hydroxybenzamide] | – | 1.3 | – | – | – | – | – | 1.32 | – |
| O=C(Nc1ccc(Sc2nc3ccccc3s2)cc1)c1cccc(Br)c1O [Compound 6, N-(4-(Benzo[d]thiazol-2-ylthio)phenyl)-3-bromo-2-hydroxybenzamide] | – | 14 | – | – | – | – | – | 13.8 | inactive against the reporter enzymes |
| O=C(Nc1ccc(Sc2nc3ccccc3s2)cc1)c1cc(Br)ccc1O [Compound 7, N-(4-(Benzo[d]thiazol-2-ylthio)phenyl)-5-bromo-2-hydroxybenzamide] | 1.48 ± 0.11 | 30 | – | > 100 | – | – | – | – | inactive against the reporter enzymes |
| O=C(Nc1ccc(Sc2nc3ccccc3s2)cc1)c1ccccc1O [Compound 8, N-(4-(Benzo[d]thiazol-2-ylthio)phenyl)-2-hydroxybenzamide] | 1.94 ± 0.23 | 87 | – | > 100 | – | – | – | – | – |
| O=C(Nc1cccc(Cl)c1)c1cc(Br)cc(Br)c1O [Compound 9, 3,5-Dibromo-N-(3-chlorophenyl)-2-hydroxybenzamide] | 1.67 ± 0.04 | 47 | >2 | > 100 | – | – | 9.12 | – | – |
| O=C(Nc1cccc(Cl)c1)c1cc(Br)ccc1O [Compound 11, 5-Bromo-N-(3-chlorophenyl)-2-hydroxybenzamide] | >2 | – | >2 | > 100 | – | > 100 | – | – | – |
| O=C(Nc1cccc(Cl)c1)c1ccccc1O [Compound 12, N-(3-Chlorophenyl)-2-hydroxybenzamide] | >2 | – | >2 | > 100 | – | > 100 | – | – | – |
| O=C(Nc1ccccc1)c1cccc(Br)c1O [Compound 14, 3-Bromo-2-hydroxy-N-phenylbenzamide] | >2 | – | >2 | > 100 | – | > 100 | – | – | – |
| O=C(Nc1ccccc1)c1cc(Br)ccc1O [Compound 15, 5-Bromo-2-hydroxy-N-phenylbenzamide] | >2 | – | >2 | > 100 | – | > 100 | – | – | – |
| O=C(Nc1ccc(Sc2nc3ccccc3s2)c(Cl)c1)c1ccccc1 [Compound 19, N-(4-(Benzo[d]thiazol-2-ylthio)-3-chlorophenyl)benzamide] | – | – | – | > 100 | – | > 100 | – | – | – |
| O=C(Nc1ccc(Sc2nc3ccccc3s2)cc1)c1cccc(Br)c1 [Compound 21, N-(4-(Benzo[d]thiazol-2-ylthio)phenyl)-3-bromobenzamide] | – | – | – | > 100 | – | > 100 | – | – | – |
| O=C(Nc1cccc(Cl)c1)c1cc(Br)cc(Br)c1 [Compound 23, 3,5-Dibromo-N-(3-chlorophenyl)benzamide] | >2 | – | >2 | > 100 | – | > 100 | – | – | – |
| COc1c(Br)cccc1C(=O)Nc1ccc(Sc2nc3ccccc3s2)c(Cl)c1 [Compound 30, N-(4-(Benzo[d]thiazol-2-ylthio)-3-chlorophenyl)-3-bromo-2-methoxybenzamide] | – | – | – | – | – | > 100 | > 100 | – | – |
| COc1c(Br)cccc1C(=O)Nc1ccc(Sc2nc3ccccc3s2)cc1 [Compound 34, N-(4-(Benzo[d]thiazol-2-ylthio)phenyl)-3-bromo-2-methoxybenzamide] | – | – | – | – | – | – | > 100 | – | – |
| CO[C@H]1/C=C/O[C@@]2(C)Oc3c(C)c(O)c4c(O)c(c(/C=N/N5CCN(C)CC5)c(O)c4c3C2=O)NC(=O)/C(C)=C\C=C\[C@H](C)[C@H](O)[C@@H](C)[C@@H](O)[C@@H](C)[C@H](OC(C)=O)[C@@H]1C [Rifampicin, rifampicin, reference compound] | – | – | – | – | – | – | 72.4 | – | – |

Source: patent publication US20210395210A1, “INHIBITION OF BACTERIAL CHAPERONIN SYSTEMS” (THE TRUSTEES OF INDIANA UNIVERSITY, priority 2018, published 2021)
